According to ChEMBL document CHEMBL1147799, “An integrated in silico 3D model-driven discovery of a novel, potent, and selective amidosulfonamide 5-HT1A agonist (PRX-00023) for the treatment of anxiety and depression” (J Med Chem, 2006):

Legend:
[1] = biological target: T1, Alpha-2A adrenergic receptor (Rattus norvegicus) (UniProt P22909); assay: Displacement of [3H]RX 821002 from Adrenergic alpha-2a receptor in rat cerebral cortex cells at 1 uM; format: cell-based
T1 sequence (whole entry): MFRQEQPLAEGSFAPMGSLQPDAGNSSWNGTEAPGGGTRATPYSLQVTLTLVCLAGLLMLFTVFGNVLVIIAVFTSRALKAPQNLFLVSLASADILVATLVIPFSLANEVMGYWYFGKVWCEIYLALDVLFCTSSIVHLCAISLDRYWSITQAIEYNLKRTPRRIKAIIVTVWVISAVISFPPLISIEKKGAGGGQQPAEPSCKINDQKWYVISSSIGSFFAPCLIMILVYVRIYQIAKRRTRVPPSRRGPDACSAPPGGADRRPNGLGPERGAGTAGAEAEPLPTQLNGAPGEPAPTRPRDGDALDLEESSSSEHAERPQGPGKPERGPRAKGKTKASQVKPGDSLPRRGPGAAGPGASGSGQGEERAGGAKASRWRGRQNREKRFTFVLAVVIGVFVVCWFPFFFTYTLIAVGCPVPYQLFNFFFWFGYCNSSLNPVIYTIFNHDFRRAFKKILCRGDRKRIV

[2] = biological target: Adrenergic receptor alpha-1 (Rattus norvegicus) (UniProt P15823+P23944+P43140); assay: Displacement of [3H]prazosin from Adrenergic alpha-1 receptor in rat cerebral cortex cells at 1 uM; format: cell-based
[3] = Elimination half life in human; format: ADME, organism-based; details: in vivo
[4] = Half life in Sprague-Dawley rat at 3 mg/kg, po; format: ADME, organism-based; design: dose 3 mg/kg, route oral; details: in vivo
[5] = biological target: T2, 5-hydroxytryptamine receptor 1A (Homo sapiens) (UniProt P08908); assay: Activity against 5HT1A receptor relative to 5-HT by Gi-[35S]GTP-gamma-S binding assay; format: functional
T2 sequence (whole entry): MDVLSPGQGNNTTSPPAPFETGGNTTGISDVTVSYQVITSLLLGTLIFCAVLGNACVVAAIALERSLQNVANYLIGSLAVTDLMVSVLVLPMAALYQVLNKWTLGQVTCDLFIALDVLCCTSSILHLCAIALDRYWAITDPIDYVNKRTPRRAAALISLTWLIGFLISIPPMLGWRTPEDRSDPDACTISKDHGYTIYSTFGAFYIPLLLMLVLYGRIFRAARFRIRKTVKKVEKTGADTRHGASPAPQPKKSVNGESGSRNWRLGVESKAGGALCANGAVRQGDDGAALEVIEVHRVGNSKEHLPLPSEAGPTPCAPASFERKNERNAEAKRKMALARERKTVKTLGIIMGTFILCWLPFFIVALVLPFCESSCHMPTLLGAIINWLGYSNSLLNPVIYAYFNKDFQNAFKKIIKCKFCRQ

[6] = Toxicity in po dosed Beagle dog; format: organism-based, Canis lupus familiaris; details: in vivo
[7] = Cmax in Sprague-Dawley rat at 3 mg/kg, po; format: ADME, organism-based; design: dose 3 mg/kg, route oral; details: in vivo
[8] = Toxicity in po dosed Sprague-Dawley rat; format: organism-based; details: in vivo
[9] = Cmax in Beagle dog at 3 mg/kg, po; format: ADME, organism-based, Canis lupus familiaris; design: dose 3 mg/kg, route oral; details: in vivo
[10] = Half life in Beagle dog at 3 mg/kg, po; format: ADME, organism-based, Canis lupus familiaris; design: dose 3 mg/kg, route oral; details: in vivo
D(2) dopamine receptor = D(2) dopamine receptor (Homo sapiens, UniProt P14416); assay: Binding affinity to D2 receptor by radioligand binding assay
Chain of D(2) dopamine receptor (P14416 whole entry): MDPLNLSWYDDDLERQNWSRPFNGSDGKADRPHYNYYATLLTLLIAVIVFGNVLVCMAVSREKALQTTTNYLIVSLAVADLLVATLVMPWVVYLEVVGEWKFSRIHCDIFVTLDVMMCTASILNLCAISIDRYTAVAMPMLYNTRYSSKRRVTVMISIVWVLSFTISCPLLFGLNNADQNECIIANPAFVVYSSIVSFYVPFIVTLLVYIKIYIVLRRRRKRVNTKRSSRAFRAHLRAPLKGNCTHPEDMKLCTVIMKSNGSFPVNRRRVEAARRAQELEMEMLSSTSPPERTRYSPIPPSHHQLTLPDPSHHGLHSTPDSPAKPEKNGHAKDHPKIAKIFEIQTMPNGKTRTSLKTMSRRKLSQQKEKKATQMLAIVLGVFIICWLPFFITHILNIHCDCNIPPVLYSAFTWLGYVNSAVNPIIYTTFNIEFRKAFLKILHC

[11] = biological target: T3, Adrenergic receptor alpha-1 (Rattus norvegicus, UniProt P15823+P23944+P43140); assay: Displacement of [3H]prazosin from adrenergic alpha-1 receptor in rat cerebral cortex cells; format: cell-based
T3 sequence (P15823 whole entry): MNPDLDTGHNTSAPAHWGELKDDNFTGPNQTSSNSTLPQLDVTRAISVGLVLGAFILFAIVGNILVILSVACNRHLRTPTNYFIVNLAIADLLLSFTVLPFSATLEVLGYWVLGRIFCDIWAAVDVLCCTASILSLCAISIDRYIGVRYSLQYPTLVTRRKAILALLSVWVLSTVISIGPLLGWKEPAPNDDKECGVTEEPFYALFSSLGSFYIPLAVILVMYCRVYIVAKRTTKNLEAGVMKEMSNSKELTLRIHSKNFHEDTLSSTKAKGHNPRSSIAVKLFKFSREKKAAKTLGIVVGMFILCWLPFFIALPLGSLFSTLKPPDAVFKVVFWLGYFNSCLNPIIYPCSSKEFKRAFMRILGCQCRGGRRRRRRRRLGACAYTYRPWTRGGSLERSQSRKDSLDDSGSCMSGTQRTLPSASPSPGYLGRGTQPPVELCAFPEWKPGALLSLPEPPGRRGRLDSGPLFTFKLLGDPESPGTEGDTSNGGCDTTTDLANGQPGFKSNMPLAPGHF
T3 sequence (P23944 whole entry): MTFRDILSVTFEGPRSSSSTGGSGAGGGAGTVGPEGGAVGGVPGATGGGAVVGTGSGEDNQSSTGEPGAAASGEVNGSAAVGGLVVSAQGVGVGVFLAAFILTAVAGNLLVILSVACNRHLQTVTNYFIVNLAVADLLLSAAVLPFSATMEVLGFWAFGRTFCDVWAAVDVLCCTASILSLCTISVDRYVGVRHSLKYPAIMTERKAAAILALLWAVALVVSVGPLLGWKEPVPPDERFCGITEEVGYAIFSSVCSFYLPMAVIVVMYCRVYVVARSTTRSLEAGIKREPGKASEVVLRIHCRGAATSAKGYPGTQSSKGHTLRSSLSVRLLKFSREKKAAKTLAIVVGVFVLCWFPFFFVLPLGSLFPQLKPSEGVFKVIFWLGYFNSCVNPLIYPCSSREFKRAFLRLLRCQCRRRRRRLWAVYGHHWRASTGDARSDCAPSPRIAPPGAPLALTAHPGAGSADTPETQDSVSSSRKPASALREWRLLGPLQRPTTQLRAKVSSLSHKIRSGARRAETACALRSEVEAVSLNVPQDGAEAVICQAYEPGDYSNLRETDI
T3 sequence (P43140 whole entry): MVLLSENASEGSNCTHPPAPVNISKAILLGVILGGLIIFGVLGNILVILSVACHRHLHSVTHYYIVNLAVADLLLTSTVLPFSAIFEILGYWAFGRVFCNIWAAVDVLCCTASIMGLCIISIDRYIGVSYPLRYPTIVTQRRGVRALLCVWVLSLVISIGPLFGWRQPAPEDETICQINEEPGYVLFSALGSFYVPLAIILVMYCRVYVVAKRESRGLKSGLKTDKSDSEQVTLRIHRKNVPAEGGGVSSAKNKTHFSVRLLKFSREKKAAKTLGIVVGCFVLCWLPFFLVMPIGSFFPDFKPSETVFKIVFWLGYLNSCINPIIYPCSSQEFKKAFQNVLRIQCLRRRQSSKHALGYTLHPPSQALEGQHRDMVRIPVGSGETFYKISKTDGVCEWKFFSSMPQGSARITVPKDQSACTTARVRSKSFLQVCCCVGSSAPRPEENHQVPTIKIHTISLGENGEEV

[12] = biological target: T4, 5-hydroxytryptamine receptor 1A (Homo sapiens, UniProt P08908); assay: Displacement of [3H]8-OH-DPAT from human 5HT1A receptor in HEK293 cells
T4 sequence (P08908 whole entry): T2 sequence (whole entry)

[13] = Selectivity for adrenergic alpha-1 receptor over 5HT1A receptor
[14] = biological target: Dopamine D2 receptor and serotonin 1a receptor (Homo sapiens) (UniProt P14416+P08908); assay: Selectivity for D2 receptor over 5HT1A receptor; format: protein assay
Chain of Dopamine D2 receptor and serotonin 1a receptor (Homo sapiens) (P14416 whole entry, looked up, one chain of several): as the sequence (P14416 whole entry) above

Compound | Activity [1] [%] | Activity [2] [%] | half-life [3] [min] | other results
CC(=O)Nc1cccc(N2CCN(CCCCNS(=O)(=O)C3CCCCC3)CC2)c1 | < 10 | < 10 |  | 
CC(=O)Nc1cccc(N2CCN(CCCCNS(=O)(=O)c3ccc(F)cc3)CC2)c1 | < 10 | 39 |  | 
CCCC(=O)Nc1cccc(N2CCN(CCCCNS(=O)(=O)c3ccc(C)cc3)CC2)c1 | 12 | 12 |  | 
CCS(=O)(=O)Nc1cccc(N2CCN(CCCCNS(=O)(=O)c3ccc(C)cc3)CC2)c1 | 14 | 47 |  | 
Cc1ccc(S(=O)(=O)NCCCCN2CCN(c3cccc(NC(=O)C(C)(C)C)c3)CC2)cc1 | 11 | 0 |  | 
Cc1ccc(S(=O)(=O)NCCCCN2CCN(c3cccc(NS(C)(=O)=O)c3)CC2)cc1 | 21 | 51 |  | 
Cc1ccc(S(=O)(=O)NCCCCN2CCN(c3ccccc3)CC2)cc1 | 90 | 98 |  | 
O=C(Nc1cccc(N2CCN(CCCCNS(=O)(=O)CC3CCCCC3)CC2)c1)C1CC1 | < 10 | 10 |  | 
O=C1CC2(CCCC2)CC(=O)N1CCCCN1CCN(c2ncccn2)CC1 [BUSPIRONE] |  |  | 120 | half-life [4]: 60 min; Activity [5]: 50%; LD50 [6]: 586 mg/kg; Cmax [7]: 4 ng/mL; LD50 [8]: 196 mg/kg; Cmax [9]: 146 ng/mL; half-life [10]: 60 min
CC1(C)CC(=O)N(CCCCN2CCN(c3ncccn3)CC2)C(=O)C1 [GEPIRONE] |  |  | 360 | Activity [5]: 80%; Ki (D(2) dopamine receptor): 58 nM
O=C1c2ccccc2S(=O)(=O)N1CCCCN1CCN(c2ncccn2)CC1 [IPSAPIRONE] |  |  | 120 | Ki [11]: 229 nM; Ki [12]: 6 nM; Ki (D(2) dopamine receptor): 110 nM; Ratio Ki [13]: 38; Ratio Ki [14]: 18
O=C1CCC(=O)N1C[C@H]1CC[C@H]2CN(c3ncccn3)CCN2C1 [SUNEPITRON] |  |  | 120 | Ki [11]: 35 nM; Ki [12]: 92 nM; Ratio Ki [13]: 0.4
